Test results taken from patent publication US10946019B2, “Nurr1:RXR activating compounds for simultaneous treatment of symptoms and pathology of Parkinson's disease” (priority 2015, dated 2021).

Experiments:
[1] = molecular target: Nurr1:RXRα heterodimer (Homo sapiens (Human), UniProt P19793); assay: Nurr1:RXRα-dependent luciferase reporter (DR5-TK-Luc) transactivation assay; format: cell-based; conditions: SHSY-5Y cells co-transfected with human Nurr1, RXRα and DR5-TK-Luc
Experimental: The in vitro transactivation assay determined the capacity of the compounds of the invention to activate the Nurr1:RXR heterodimers. Naive SHSY-5Y cells were transiently co-transfected, using Lipofectamine 2000 (Invitrogen), with a plasmid expressing the human receptor Nurr1, a plasmid expressing the RXR human receptor (RXRα or RXRγ receptor) and a reporter plasmid DR5-TK-Luc. […] After incubation overnight, the expression of luciferase was measured (FIG. 1A).

[2] = Plasma and brain concentrations by LC-MS/MS after IP administration to mice; format: in vivo, mouse
Experimental: FIGS. 68A and 68B show the pharmacokinetic profile of XCT in blood plasma and in the brain of mice injected with this compound. […] Serial tail bleeds (n=3) were used for detection of the compound in plasma 1 and 2 hours after IP administration. Similarly, mice (n=3) were sacrificed 1 and 2 hours after IP administration and brains were dissected. The concentrations of the parent compound in plasma and brain were determined by LC-MS/MS.
The concentrations of the parent compound in plasma and brain were determined by LC/MSMS.
XCT0135908 was administered to mice to test its bioactivity.

[3] = test system: SHSY-5Y dopaminergic cells; assay: MPP+ induced cell death, MTT assay; format: cell-based, human; conditions: 12.5 μM, varying concentrations of MPP+
Experimental: MPP+, eradicates approximately 75% of the cells in 24 hours. […] Naive Neuro2A cells (FIG. 2A) or SH-SY5Y neuroblastoma cells FIG. 2B,C) were cultured in RPMI 1640, 10% fetal bovine serum at 37° C. Cells were pretreated with compound 3 for 12-24 h. Subsequent change of culture medium with addition of 0, 1, 2 and 4 mM MPP+ induced cell death. MTT assays determined the relative number of surviving cells FIG. 2D).
Such assays were performed, for instance, by adding compound 46 (12.5 μM) to human origin SHSY-5Y dopaminergic cells in which death was induced by the mitochondria complex I inhibitor MPP+ (1-methyl-4-phenylpyridinium), the active metabolite of MPTP (1-methyl-4-phenyl-1,2,3,6-tetrahydropyridine). […] Most of the MPP+-treated cells receiving vehicle died, while the few surviving cells remained attached to the plate but were rounded and had lost all projections. These morphological changes indicated impaired neuronal function. On the contrary, cells treated with compound 46 appeared healthy, flattened, well-attached, and their projections remained intact.
We examined the neuroprotective capability of Nurr1:RXRα heterodimer activation in SHSY-5Y cells where death was induced by either the oxidative stress related H2O2 or the mitochondria complex I inhibitor MPP+ (1-methyl-4-phenylpyridinium) (FIG. 72B). […] The protection conferred by compound 3 was Nurr1-dependent, since it was abrogated by knocking-down endogenous Nurr1 mRNA (FIGS. 1E and 72D). The neuroprotective effects of compound 3 extend to damage induced by the PD-associated mutation G2019S in the Leucine-Rich Repeat Kinase 2 (LRRK2) gene, the most common genetic defect associated with clinical PD (Tofaris et al. J. Neurosci. 26:3942-3950, 2006). Rat cortical neurons, co-transfected with CMV-GFP for identification, and CMVLRRK2-G2019S cDNAs show increased apoptosis as assessed by DAPI staining, compared to control neurons co-transfected with a LRRK2 wt cDNA.

[4] = test system: c-jun; assay: Midbrain c-jun expression by qPCR after administration to mice; format: in vivo, mouse
Experimental: FIGS. 69A-69C show the brain penetration, half-life, and c-jun transcriptional activation of compound 3. […] Mice (n=5) were sacrificed 1, 2, 4, 8 and 24 hours after IP administration and brains were dissected 1, 2, 4, 8 and 24 hours post administration. The concentrations of the parent compound in plasma and brain were determined by LC/MSMS.
(§1) To assess the neuroprotective effect of compound 3, this compound was dosed to wt mice intraperitoneally (IP) at 10 mg/kg injections of compound 3 in Ethanol:PG:Saline 10:30:60. After 2 h and 4 h animals (n=3 per time point) were sacrificed, and their brains obtained. After extraction c-jun and tyrosine hydroxylase (TH) levels in brain extract were determined by qPCR (FIG. 1E, 1F).

[5] = molecular target: Nur77:RXRα heterodimers (Homo sapiens (Human), UniProt P19793); assay: Relative activation of Nurr1 and Nur77 in a luciferase reporter assay; format: cell-based; conditions: FIG. 67
Chain of Nur77:RXRα heterodimers (P19793 whole entry, looked up): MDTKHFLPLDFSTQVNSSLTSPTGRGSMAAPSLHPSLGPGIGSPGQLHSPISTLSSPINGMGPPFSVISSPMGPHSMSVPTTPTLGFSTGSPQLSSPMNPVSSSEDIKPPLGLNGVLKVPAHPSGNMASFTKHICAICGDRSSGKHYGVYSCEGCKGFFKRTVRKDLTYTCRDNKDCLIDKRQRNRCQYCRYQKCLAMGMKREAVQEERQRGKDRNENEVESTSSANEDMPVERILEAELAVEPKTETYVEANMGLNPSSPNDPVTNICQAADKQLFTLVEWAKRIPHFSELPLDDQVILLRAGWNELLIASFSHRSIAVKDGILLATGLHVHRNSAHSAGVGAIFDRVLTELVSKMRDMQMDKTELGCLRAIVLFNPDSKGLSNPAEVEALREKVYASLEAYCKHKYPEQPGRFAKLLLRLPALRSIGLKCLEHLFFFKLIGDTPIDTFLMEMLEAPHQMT
Chain of Nur77:RXRα heterodimers (P22736 whole entry partner, looked up): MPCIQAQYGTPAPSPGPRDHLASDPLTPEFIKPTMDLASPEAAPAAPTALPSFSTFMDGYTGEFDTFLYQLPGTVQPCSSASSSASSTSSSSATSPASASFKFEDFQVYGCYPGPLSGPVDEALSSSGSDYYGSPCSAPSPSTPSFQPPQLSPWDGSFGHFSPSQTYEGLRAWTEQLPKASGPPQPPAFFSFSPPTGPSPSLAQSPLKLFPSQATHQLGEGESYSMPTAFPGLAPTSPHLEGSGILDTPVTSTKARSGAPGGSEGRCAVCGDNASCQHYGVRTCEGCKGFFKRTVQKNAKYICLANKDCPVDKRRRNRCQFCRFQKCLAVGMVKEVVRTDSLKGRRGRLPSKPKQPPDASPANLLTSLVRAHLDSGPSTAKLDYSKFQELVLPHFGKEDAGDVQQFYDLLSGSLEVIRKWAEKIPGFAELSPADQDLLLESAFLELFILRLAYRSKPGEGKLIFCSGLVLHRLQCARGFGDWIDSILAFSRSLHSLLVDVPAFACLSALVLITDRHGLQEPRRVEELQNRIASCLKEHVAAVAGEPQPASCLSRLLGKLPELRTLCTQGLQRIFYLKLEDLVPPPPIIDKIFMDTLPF

[6] = test system: tyrosine hydroxylase (TH); assay: Midbrain tyrosine hydroxylase expression by qPCR after administration to mice; format: in vivo, mouse; conditions: mice, IP or intracerebroventricular 1 and 10 mg/kg, different time points
Experimental: as §1
Given the role of Nurr1:RXRα activation in the transcriptional regulation of DA biosynthesis genes, we tested whether compound 3 could increase DA levels in wt and ASYN transgenic mice (Tofaris et al. J. Neurosci. 26:3942-3950, 2006), which display reduced striatal DA levels after reaching adulthood. […] Aiming to model PD based on human genetic data, we also tested whether compound 3 could increase DA levels in ASYN transgenic mice. A single IP injection of compound 3 (10 mg/kg) was able increase striatal DA (t test p=0.01069) and DA metabolite levels in ASYN transgenics as well (FIG. 75C) in comparison to mice receiving vehicle.

Chain of Nurr1:RXRα heterodimer (P19793 whole entry): as the sequence (P19793 whole entry, looked up) above
Chain of Nurr1:RXRα heterodimer (P43354 whole entry partner): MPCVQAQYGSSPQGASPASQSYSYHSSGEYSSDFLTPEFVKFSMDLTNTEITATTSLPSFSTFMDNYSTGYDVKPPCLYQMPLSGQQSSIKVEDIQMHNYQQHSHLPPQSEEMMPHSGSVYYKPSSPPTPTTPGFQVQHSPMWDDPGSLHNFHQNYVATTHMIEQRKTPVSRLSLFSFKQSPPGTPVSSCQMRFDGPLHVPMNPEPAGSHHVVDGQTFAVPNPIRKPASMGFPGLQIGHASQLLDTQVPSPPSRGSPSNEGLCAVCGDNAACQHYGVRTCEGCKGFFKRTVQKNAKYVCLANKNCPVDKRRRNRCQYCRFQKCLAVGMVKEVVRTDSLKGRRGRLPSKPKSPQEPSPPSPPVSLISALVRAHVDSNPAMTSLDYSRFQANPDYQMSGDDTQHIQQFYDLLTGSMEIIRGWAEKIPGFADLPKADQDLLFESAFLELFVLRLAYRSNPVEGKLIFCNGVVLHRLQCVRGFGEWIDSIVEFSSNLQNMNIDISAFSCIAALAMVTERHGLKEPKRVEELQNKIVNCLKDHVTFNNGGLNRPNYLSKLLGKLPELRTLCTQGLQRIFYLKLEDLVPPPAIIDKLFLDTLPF

For `C=CCc1c(C)nc(-c2ccccc2)nc1Nc1ccc(C(=O)OCOC(=O)C(C)(C)C)cc1` [Example 30, pivaloyloxymethyl 4-(5-allyl-6-methyl-2-phenylpyrimidin-4-ylamino)benzoate], which EC50 [1] is on record?
Its EC50 is 2 µM.

For `C=CCc1c(C)nc(-c2ccccc2)nc1Nc1ccc(C(=O)Oc2ccc(C[C@H](N)C(=O)O)cc2)cc1` [Example 31, (S)-2-(4-(4-(5-allyl-6-methyl-2-phenylpyrimidin-4-ylamino)benzoyloxy)phenyl)-1-carboxyethanaminium chloride], which EC50 [1] is on record?
The EC50 was 10 µM.

With `C=CCc1c(C)nc(-c2ccccc2)nc1Nc1ccc(C(=O)OCCCOc2ccc(C[C@H](N)C(=O)O)cc2)cc1` [Example 32, (S)-2-(4-(3-(4-(5-allyl-6-methyl-2-phenylpyrimidin-4-ylamino)benzoyloxy)propoxy)phenyl)-1-carboxyethanaminium chloride] as the compound, how does the EC50 [1] read?
The EC50 was 5 µM.

Which EC50 [1] does the source give for `Cc1nc(-c2ccccc2)nc2c1cc(C)n2-c1ccc(C(=O)O)cc1` [Example 45, 4-(4,6-dimethyl-2-phenyl-7H-pyrrolo[2,3-d]pyrimidin-7-yl)benzoic acid] here?
Its EC50 is 2.5 µM.

With `Cc1nc(-c2ccccc2)nc2c1cc(C)n2-c1ccc(C(=O)O)cc1Br` [Example 46, 3-bromo-4-(4,6-dimethyl-2-phenyl-7H-pyrrolo[2,3-d]pyrimidin-7-yl)benzoic acid] as the compound, how does the EC50 [1] read?
Its EC50 is 0.7 µM.

What about the bioavailability ([2]; mouse, in vivo, ip) of the same compound?
The bioavailability was “highly bioavailable”.

What about the brain penetration ([2]; mouse, in vivo, ip) of the same compound?
The brain penetration was “capable of crossing the blood brain barrier”.

What about the “cell survival against MPP+” value [3] of the same compound?
The value was “significantly increased the survival of cells”.

What about the “c-jun transcriptional activation in the midbrain” value ([4]; IP compound 46, qPCR 2 hours after administration) of the same compound?
The value was “significant c-jun transcriptional activation”.

For `C=CCc1c(C)nc(-c2ccccc2)nc1Nc1ccc(C(=O)O)cc1` [XCT0135908, reference compound], which “compound stability in vivo” value ([2]; mice, 1 and 2 hours after IP, plasma and brain homogenates) is on record?
The value was “low compound stability”.

What about the brain penetration ([2]; mice, IP administration) of the same compound?
The brain penetration was “minimal brain penetration”.

What about the Kp ([2]; mouse, brain homogenate / blood plasma, mice, 1 and 2 hours after IP XCT (printed 1 μg/kg), LC-MS/MS) of the same compound?
Its Kp is under 0.03.

What about the midbrain c-jun expression ([4]; IP or intracerebroventricular 1 and 10 mg/kg, different time points) of the same compound?
Its midbrain c-jun expression is “did not result in any expression alterations”.

And the “relative activation of Nur77:RXRα vs Nurr1:RXRα heterodimers” value [5]?
Its value is “preferentially activates Nur77:RXRα heterodimers and not Nurr1:RXRα heterodimers”.

What about the “midbrain TH expression” value [6] of the same compound?
The value was “did not result in any expression alterations”.
